According to the supplement of paper PMC10307832:

Legend:
Assay in all cases: relative viability (nuclei count vs DMSO), 5 days (fraction); higher = more cells survive
ChaGo-K-1 = tested on: ChaGo-K-1
Outline: (§1)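 One day after seeding in 1536-well plates, lung cancer cell lines were dosed by pin tool. Dosing was either single-drug or a fixed anchor-drug dose plus five library-drug doses (not always all listed) in √10 steps. After 5 days, nuclei were stained in one fix-and-stain step and counted on 4× images, and relative viability is the nuclei count of treated wells over that of vehicle wells, given as the median of duplicate plates.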

EMC-BAC-2 = tested on: EMC-BAC-2
Outline: as §1

EPLC-272H = tested on: EPLC-272H
Outline: as §1

HCC-44 = tested on: HCC-44
Outline: as §1

HOP-62 = tested on: HOP-62
Outline: as §1

LCLC-103H = tested on: LCLC-103H
Outline: as §1

LOU-NH91 = tested on: LOU-NH91
Outline: as §1

NCI-H1437 = tested on: NCI-H1437
Outline: as §1

NCI-H1793 = tested on: NCI-H1793
Outline: as §1

NCI-H2009 = tested on: NCI-H2009
Outline: as §1

NCI-H2023 = tested on: NCI-H2023
Outline: as §1

NCI-H2126 = tested on: NCI-H2126
Outline: as §1

NCI-H2170 = tested on: NCI-H2170
Outline: as §1

NCI-H2347 = tested on: NCI-H2347
Outline: as §1

NCI-H23 = tested on: NCI-H23
Outline: as §1

NCI-H2405 = tested on: NCI-H2405
Outline: as §1

NCI-H441 = tested on: NCI-H441
Outline: as §1

NCI-H460 = tested on: NCI-H460
Outline: as §1

NCI-H520 = tested on: NCI-H520
Outline: as §1

NCI-H647 = tested on: NCI-H647
Outline: as §1

NCI-H650 = tested on: NCI-H650
Outline: as §1

NCI-H727 = tested on: NCI-H727
Outline: as §1

SW 1573 = tested on: SW 1573
Outline: as §1

O=c1[nH]c2ccccc2n1C1CCN(CCCC(c2ccc(F)cc2)c2ccc(F)cc2)CC1 [Pimozide] + Cc1cc(Nc2cc(N3CCN(C)CC3)nc(Sc3ccc(NC(=O)C4CC4)cc3)n2)n[nH]1 [Tozasertib] (partner 0.1 µM)
relative viability (ChaGo-K-1; first compound 0.08 µM): 0.22
relative viability (ChaGo-K-1; first compound 0.253 µM): 0.235
relative viability (ChaGo-K-1; first compound 0.8 µM): 0.24
relative viability (ChaGo-K-1; first compound 2.53 µM): 0.212
relative viability (ChaGo-K-1; first compound 8 µM): 0.211
relative viability (EMC-BAC-2; first compound 0.08 µM): 0.292
relative viability (EMC-BAC-2; first compound 0.253 µM): 0.284
relative viability (EMC-BAC-2; first compound 0.8 µM): 0.272
relative viability (EMC-BAC-2; first compound 2.53 µM): 0.225
relative viability (EMC-BAC-2; first compound 8 µM): 0.297
relative viability (EPLC-272H; first compound 0.08 µM): 0.193
relative viability (EPLC-272H; first compound 0.253 µM): 0.241
relative viability (EPLC-272H; first compound 0.8 µM): 0.33
relative viability (EPLC-272H; first compound 2.53 µM): 0.176
relative viability (EPLC-272H; first compound 8 µM): 0.189
relative viability (HCC-44; first compound 0.08 µM): 1.16
relative viability (HCC-44; first compound 0.253 µM): 0.918
relative viability (HCC-44; first compound 0.8 µM): 0.811
relative viability (HCC-44; first compound 2.53 µM): 0.499
relative viability (HCC-44; first compound 8 µM): 0.983
relative viability (HOP-62; first compound 0.08 µM): 0.344
relative viability (HOP-62; first compound 0.253 µM): 0.353
relative viability (HOP-62; first compound 2.53 µM): 0.331
relative viability (HOP-62; first compound 8 µM): 0.321
relative viability (LCLC-103H; first compound 0.08 µM): 0.353
relative viability (LCLC-103H; first compound 0.253 µM): 0.409
relative viability (LCLC-103H; first compound 0.8 µM): 0.361
relative viability (LCLC-103H; first compound 2.53 µM): 0.422
relative viability (LCLC-103H; first compound 8 µM): 0.446
relative viability (LOU-NH91; first compound 0.08 µM): 0.451
relative viability (LOU-NH91; first compound 0.253 µM): 0.614
relative viability (LOU-NH91; first compound 0.8 µM): 0.553
relative viability (LOU-NH91; first compound 2.53 µM): 0.648
relative viability (LOU-NH91; first compound 8 µM): 0.652
relative viability (NCI-H1437; first compound 0.08 µM): 0.397
relative viability (NCI-H1437; first compound 0.253 µM): 0.389
relative viability (NCI-H1437; first compound 0.8 µM): 0.35
relative viability (NCI-H1437; first compound 2.53 µM): 0.362
relative viability (NCI-H1437; first compound 8 µM): 0.341
relative viability (NCI-H1793; first compound 0.253 µM): 0.341
relative viability (NCI-H1793; first compound 0.8 µM): 0.439
relative viability (NCI-H1793; first compound 2.53 µM): 0.244
relative viability (NCI-H1793; first compound 8 µM): 0.278
relative viability (NCI-H2009; first compound 0.08 µM): 0.696
relative viability (NCI-H2009; first compound 0.253 µM): 0.754
relative viability (NCI-H2009; first compound 0.8 µM): 0.683
relative viability (NCI-H2009; first compound 2.53 µM): 0.58
relative viability (NCI-H2009; first compound 8 µM): 0.577
relative viability (NCI-H2023; first compound 0.08 µM): 0.352
relative viability (NCI-H2023; first compound 0.253 µM): 0.314
relative viability (NCI-H2023; first compound 0.8 µM): 0.454
relative viability (NCI-H2023; first compound 2.53 µM): 0.228
relative viability (NCI-H2023; first compound 8 µM): 0.237
relative viability (NCI-H2126; first compound 0.08 µM): 0.861
relative viability (NCI-H2126; first compound 0.253 µM): 0.787
relative viability (NCI-H2126; first compound 0.8 µM): 0.756
relative viability (NCI-H2126; first compound 2.53 µM): 0.817
relative viability (NCI-H2126; first compound 8 µM): 0.772
relative viability (NCI-H2170; first compound 0.08 µM): 0.752
relative viability (NCI-H2170; first compound 0.253 µM): 0.734
relative viability (NCI-H2170; first compound 0.8 µM): 0.651
relative viability (NCI-H2170; first compound 2.53 µM): 0.653
relative viability (NCI-H2170; first compound 8 µM): 0.55
relative viability (NCI-H2347; first compound 0.253 µM): 0.582
relative viability (NCI-H2347; first compound 0.8 µM): 0.531
relative viability (NCI-H2347; first compound 2.53 µM): 0.563
relative viability (NCI-H2347; first compound 8 µM): 0.578
relative viability (NCI-H23; first compound 0.08 µM): 0.386
relative viability (NCI-H23; first compound 0.253 µM): 0.396
relative viability (NCI-H23; first compound 0.8 µM): 0.348
relative viability (NCI-H23; first compound 2.53 µM): 0.336
relative viability (NCI-H23; first compound 8 µM): 0.314
relative viability (NCI-H2405; first compound 0.08 µM): 0.754
relative viability (NCI-H2405; first compound 0.253 µM): 0.712
relative viability (NCI-H2405; first compound 0.8 µM): 0.683
relative viability (NCI-H2405; first compound 2.53 µM): 0.673
relative viability (NCI-H2405; first compound 8 µM): 0.575
relative viability (NCI-H441; first compound 0.08 µM): 0.655
relative viability (NCI-H441; first compound 0.253 µM): 0.614
relative viability (NCI-H441; first compound 0.8 µM): 0.569
relative viability (NCI-H441; first compound 2.53 µM): 0.546
relative viability (NCI-H441; first compound 8 µM): 0.618
relative viability (NCI-H460; first compound 0.08 µM): 0.407
relative viability (NCI-H460; first compound 0.253 µM): 0.314
relative viability (NCI-H460; first compound 0.8 µM): 0.446
relative viability (NCI-H460; first compound 2.53 µM): 0.0946
relative viability (NCI-H460; first compound 8 µM): 0.436
relative viability (NCI-H520; first compound 0.08 µM): 0.503
relative viability (NCI-H520; first compound 0.253 µM): 0.422
relative viability (NCI-H520; first compound 0.8 µM): 0.42
relative viability (NCI-H520; first compound 2.53 µM): 0.435
relative viability (NCI-H520; first compound 8 µM): 0.366
relative viability (NCI-H647; first compound 0.08 µM): 0.24
relative viability (NCI-H647; first compound 0.253 µM): 0.327
relative viability (NCI-H647; first compound 0.8 µM): 0.264
relative viability (NCI-H647; first compound 2.53 µM): 0.221
relative viability (NCI-H647; first compound 8 µM): 0.214
relative viability (NCI-H650; first compound 0.08 µM): 0.758
relative viability (NCI-H650; first compound 0.253 µM): 0.702
relative viability (NCI-H650; first compound 0.8 µM): 0.662
relative viability (NCI-H650; first compound 2.53 µM): 0.698
relative viability (NCI-H650; first compound 8 µM): 0.782
relative viability (NCI-H727; first compound 0.08 µM): 0.734
relative viability (NCI-H727; first compound 0.253 µM): 0.694
relative viability (NCI-H727; first compound 0.8 µM): 0.509
relative viability (NCI-H727; first compound 2.53 µM): 0.65
relative viability (NCI-H727; first compound 8 µM): 0.496
relative viability (SW 1573; first compound 0.08 µM): 0.132
relative viability (SW 1573; first compound 0.253 µM): 0.273
relative viability (SW 1573; first compound 0.8 µM): 0.133
relative viability (SW 1573; first compound 2.53 µM): 0.194
relative viability (SW 1573; first compound 8 µM): 0.174
